Where two headings read alike, the source gives them in different places.
Experiments:
d-U937 cells = assay: LPS-induced TNFα/IL-8 release in d-U937 cells; assay type: cell-based; conditions: Homo sapiens, dU937, assay (aa)
Protocol: U937 cells, a human monocytic cell line, are differentiated to macrophage-type cells by incubation with phorbol myristate acetate (PMA; 100 ng/mL) for 48 to 72 hr. Cells are pre-incubated with final concentrations of test compound for 2 hr and are then stimulated with 0.1 μg/mL of LPS (from E. Coli: 0111:B4, Sigma) for 4 hr. The supernatant is collected for determination of TNFα and IL-8 concentrations by sandwich ELISA (Duo-set, R&D systems). […] The relative 50% effective concentration (REC50) is determined from the resultant concentration-response curve. The inhibition of IL-8 production is calculated at each concentration of test compound by comparison with vehicle control.

PBMCs [1] = assay: LPS-induced TNFα/IL-8 release in PBMC cells; assay type: cell-based; conditions: Homo sapiens, assay (b), read-out: IC50 Values for Inhibition of Cytokine Release PBMCs IL-8
Summary of the method: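 Healthy-donor PBMCs isolated by density gradient were pretreated with compound for 2 h, then stimulated with 1 ng/mL LPS (E. coli 0111:B4) for 24 h at 37° C., 5% CO2. IL-8 and TNFα in supernatants measured by sandwich ELISA.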

PBMCs [2] = assay: IL-2 and IFN gamma release in CD3/CD28 stimulated PBMC cells; assay type: cell-based; conditions: Homo sapiens, assay (c)
Summary of the method: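 Healthy-donor PBMCs, density-gradient isolated, stimulated on plates pre-coated with anti-CD3 (0.3 μg/mL) and anti-CD28 (3 μg/mL) antibodies, with compound, for 3 days under standard culture conditions. IC50 derived from the dose-response curve.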

HT29 cells = assay: IL-1β-induced IL-8 release in HT29 cells; assay type: cell-based; conditions: Homo sapiens, HT-29, assay (d), read-out: IC50 Values for Inhibition of Cytokine Release HT29 cells IL-8
Protocol: HT29 cells, a human colon adenocarcinoma cell line, are plated in a 96 well plate (24 hr) and pre-treated with compounds at the desired concentration for 2 hours before addition of 5 ng/mL of IL-1β (Abcam) for 24 hours. Supernatants are harvested for IL-8 quantification by Sandwich ELISA (Duo-set, R&D System). The IC50 is determined from the dose response curve.

PBMCs [3] = assay: Cell mitosis assay in PBMCs; assay type: cell-based; conditions: Homo sapiens, PBMC, 5 μg/mL
Summary of the method: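 Human PBMCs from healthy donors, density-gradient isolated, stimulated with 2% PHA 48 h, then exposed 20 h to test compounds; demecolcine 0.1 μg/mL added 2 h before harvest. Fixed/permeabilised cells stained for phospho-histone H3 and propidium iodide; mitotic lymphocytes counted by flow cytometry.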

BDF1 mice = assay: TNBS-induced colitis in mice; assay type: in vivo; conditions: conducted over 2 days; vehicle corn oil/transcutol/maisine/cremophor ELP
Protocol: Non-fasted, 10-12 week old, male BDF1 mice are dosed by oral gavage twice daily with either vehicle (5 mL/kg), reference item (Budesonide 2.5 mg/kg) or test compound (1 or 5 mg/kg) one day before (Day −1) stimulation of the inflammatory response by treatment with 2,4,6-trinitrobenzenesulphonic acid (TNBS) (15 mg/mL in 50% ethanol/50% saline). On Day 0 of the study TNBS (200 μL) is administered intra-colonically via a plastic catheter with BID dosing of the vehicle, reference or test compound continuing for 2 or 4 days. During the study, animals are weighed every day and stool observations are made and recorded as a score, based on stool consistency. At the time of sacrifice on Day 2 (or Day 4), the large intestine is removed and the length and weight recorded. Sections of the colon are taken for histopathology scoring to determine disease severity.

SCID animals = assay: Adoptive transfer in mice (CD45RBhigh cells into SCID animals); assay type: in vivo; conditions: end of the study
Protocol: On Study day 0, female Balb/C mice are terminated and spleens obtained for CD45RB^high cell isolation (Using SCID IBD cell Separation protocol). Approximately 4×10^5 cells/mL CD45RB^high cells are then injected intraperitoneally (100 μL/mouse) into female SCID animals. On study day 14, mice are weighed and randomized into treatment groups based on body weight. On Day 14, compounds are administered BID, via oral gavage, in a peanut oil vehicle at the dose levels outlined below in Tables 6a and 6b and a dose volume of 5 mL/kg. Treatment continues until study day 42, at which point the animals are necropsied 4 hours after the morning administration. The colon length and weight are recorded and used as a secondary endpoint in the study as a measurement of colon oedema. The colon is then divided into six cross-sections, four of which are used for histopathology scoring (primary endpoint) and two are homogenised for cytokine analysis. Data shown is the % inhibition of the induction window between naïve animals and vehicle animals, where higher inhibition implies closer to the non-diseased, naïve, phenotype.

[4] = Plasma pharmacokinetics and total colon tissue distribution in mice, single oral administration; assay type: in vivo, C57BL/6 mice; conditions: male, C57BL/6, mouse, 5 mg/kg, read-out: Median plasma concentration
Protocol: (§1) Studies were conducted by Sai Life Sciences (Hinjewadi, Pune, India) to investigate the plasma pharmacokinetics and total colon tissue distribution of compounds of the invention. In particular, pharmacokinetic studies were carried out in: • male C57BL/6 mice, following a single oral administration; and • male Wistar rats following a single intravenous or oral administration.

[5] = Plasma pharmacokinetics in rats, single intravenous or oral administration; assay type: in vivo; conditions: male, Wistar, rat; for clearance: rats, intravenous 0.25 mg/kg
Protocol: as §1

Lewis rats = assay: Endotoxin-induced uveitis in rats; assay type: in vivo; conditions: rats treated with intravitreal endotoxin LPS
Protocol: Male, Lewis rats (6-8 weeks old, Charles River UK Limited) are housed in cages of 3 at 19-21° C. with a 12 h light/dark cycle (07:00/19:00) and fed a standard diet of rodent chow and water ad libitum. Non-fasted rats are weighed, individually identified on the tail with a permanent marker, and receive a single intravitreal administration into the right vitreous humor (5 μL dose volume) of 100 ng/animal of LPS (Escherichia coli 0111:B4 prepared in PBS, Sigma Aldrich, UK) using a 32-gauge needle. Untreated rats are injected with PBS. Test compound, dexamethasone (Dex) or vehicle (20% hydroxypropyl-β-cyclodextrin, 0.1% HPMC, 0.01% Benzalkonium chloride, 0.05% EDTA, 0.7% NaCl in deionised water) are administered by the topical route onto the right eye (10 μL) of animals 30 minutes prior to LPS, at the time of LPS administration, and 1, 2 and 4 hours post LPS administration. Before administration, the solution or suspension to be administered is agitated for 5 minutes to ensure a uniform suspension. 6 hours after LPS dosing, animals are euthanized by overdose with pentobarbitone (i.v.). Following euthanasia, the right eye of each animal is enucleated and dissected into front (anterior) and back (posterior) sections around the lens. Each section is weighed and homogenised in 500 μL of sterile phosphate buffered saline followed by 20 minutes centrifugation at 12000 rpm at 4° C. The resulting supernatant is divided into 3 aliquots and stored at −80° C. until subsequent cytokine analysis by R&D DuoSet ELISA.

[6] = read-out: IC50 Values for Inhibition of Cytokine Release PBMCs IFNγ
[7] = read-out: IC50 Values for Inhibition of Cytokine Release PBMCs IL-2
[8] = po, 5 mg/kg, read-out: Median plasma concentration

Q: Which results are given for `COCCOCCOCCNC(=O)c1cc(Nc2cc(Oc3ccc(NC(=O)Nc4cc(C(C)(C)C)cc(NS(C)(=O)=O)c4OC)c4ccccc34)ccn2)cc(OC)c1` [Example 3, 3-((4-((4-(3-(5-(tert-Butyl)-2-methoxy-3-(methylsulfonamido)phenyl)ureido)naphthalen-1-yl)oxy)pyridin-2-yl)amino)-5-methoxy-N-(2-(2-(2-methoxyethoxy)ethoxy)ethyl)benzamide]?
A: IC50 (d-U937 cells; method: relative to 10 μg/mL BIRB796 (REC50), read-out: IC50 Values for Inhibition of Cytokine Release dU937 cells TNFα): 0.4 nM; IC50 (d-U937 cells; read-out: IC50 Values for Inhibition of Cytokine Release dU937 cells IL-8): 1.3 nM; IC50 (PBMCs [1]): 1.2 nM; IC50 (PBMCs [2]; [6]): 9.6 nM; IC50 (PBMCs [2]; [7]): 190 nM; IC50 (HT29 cells): 8.1 nM; inhibition at 5 µg/mL (PBMCs [3]): 31.7%; activity in TNBS-induced colitis (histopathology analysis) (BDF1 mice): displayed substantial activity; activity in adoptive transfer model (ratios of colon weight to length) (SCID animals): displayed significant activity; concentration at 1 h [4]: 0 ng/mL; concentration at 2 h [4]: 0 ng/mL; concentration at 4 h [4]: 0 ng/mL; concentration at 8 h [4]: 0 ng/mL; concentration at 12 h [4]: 0 ng/mL; concentration at 24 h [4]: 0 ng/mL; concentration at 0.5 h [5, 8]: 0 ng/mL; concentration at 1 h [5, 8]: 0 ng/mL; concentration at 2 h [5, 8]: 0 ng/mL; concentration at 4 h [5, 8]: 0 ng/mL; concentration at 6 h [5, 8]: 0 ng/mL; concentration at 8 h [5, 8]: 0 ng/mL; concentration at 12 h [5, 8]: 0 ng/mL; concentration at 24 h [5, 8]: 0 ng/mL; clearance [5]: 5.1 mL/min/kg

Q: Which IC50 (PBMCs [1]) does the source give for `CNC(=O)c1cc(C(C)(C)C)cc(NC(=O)Nc2ccc(Oc3ccnc(Nc4cc(OC)cc(OCCOCCOCCOC)c4)c3)c3ccccc23)c1OC` [Example 29, 5-(tert-Butyl)-2-methoxy-3-(3-(4-((2-((3-methoxy-5-(2-(2-(2-methoxyethoxy)ethoxy)-ethoxy)phenyl)amino)pyridin-4-yl)oxy)naphthalen-1-yl)ureido)-N-methylbenzamide] here?
A: 2.3 nM

Q: What about the IC50 (PBMCs [2]; [6]) of the same molecule?
A: 3.5 nM

Q: What about the IC50 (PBMCs [2]; [7]) of the same molecule?
A: 51.2 nM

Q: And the IC50 (HT29 cells)?
A: 0.6 nM

Q: And the inhibition at 5 µg/mL (PBMCs [3])?
A: 34.6%

Q: And the “cytokine levels in the anterior and posterior segments of the eyes” value (Lewis rats)?
A: significantly reduced

Q: What about the clearance [5] of the same molecule?
A: 14.2 mL/min/kg

Q: Which IC50 (PBMCs [1]) does the source give for `COCCOCCOCCOc1cc(Nc2cc(Oc3ccc(NC(=O)Nc4cc(C(C)(C)C)cc(C(N)=O)c4OC)c4ccccc34)ccn2)cc(OC)c1` [Example 34, 5-(tert-Butyl)-2-methoxy-3-(3-(4-((2-((3-methoxy-5-(2-(2-(2-methoxyethoxy)ethoxy)ethoxy)phenyl)amino)pyridin-4-yl)oxy)naphthalen-1-yl)ureido)benzamide] here?
A: 3 nM

Q: And the IC50 (PBMCs [2]; [6])?
A: 7.6 nM

Q: What about the IC50 (PBMCs [2]; [7]) of the same molecule?
A: 62.5 nM

Q: What about the IC50 (HT29 cells) of the same molecule?
A: 2.1 nM

Q: And the inhibition at 5 µg/mL (PBMCs [3])?
A: 40.4%

Q: And the “activity in TNBS-induced colitis (histopathology analysis)” value (BDF1 mice)?
A: displayed substantial activity

Q: Which IC50 (PBMCs [1]) does the source give for `COc1cc(Nc2cc(Oc3ccc(NC(=O)Nc4cc(C(C)(C)C)cc(NS(C)(=O)=O)c4OC)c4ccccc34)ccn2)cc(C(=O)NCCCN2CCOCC2)c1` [Example 66, 3-((4-((4-(3-(5-(tert-Butyl)-2-methoxy-3-(methylsulfonamido)phenyl)ureido)naphthalen-1-yl)oxy)pyridin-2-yl)amino)-5-methoxy-N-(3-morpholinopropyl)benzamide] here?
A: 1.9 nM

Q: What about the IC50 (PBMCs [2]; [6]) of the same molecule?
A: 20.2 nM

Q: And the IC50 (PBMCs [2]; [7])?
A: 49.2 nM

Q: What about the IC50 (HT29 cells) of the same molecule?
A: 16.4 nM

Q: What about the inhibition at 5 µg/mL (PBMCs [3]) of the same molecule?
A: 66.6%

Q: What about the “cytokine levels in the anterior and posterior segments of the eyes” value (Lewis rats) of the same molecule?
A: significantly reduced

Q: Which IC50 (PBMCs [1]) does the source give for `COc1cc(Nc2cc(Oc3ccc(NC(=O)Nc4cc(C(C)(C)C)cc(NS(C)(=O)=O)c4OC)c4ccccc34)ccn2)cc(C(=O)NCCN2CCN(C)CC2)c1` [Example 79, 3-((4-((4-(3-(5-(tert-Butyl)-2-methoxy-3-(methylsulfonamido)phenyl)ureido)naphthalen-1-yl)oxy)pyridin-2-yl)amino)-5-methoxy-N-(2-(4-methylpiperazin-1-yl)ethyl)benzamide] here?
A: 3.4 nM

Q: And the IC50 (PBMCs [2]; [6])?
A: 5.9 nM

Q: And the IC50 (PBMCs [2]; [7])?
A: 284 nM

Q: What about the IC50 (HT29 cells) of the same molecule?
A: 13.1 nM

Q: What about the inhibition at 5 µg/mL (PBMCs [3]) of the same molecule?
A: 54.4%

Q: What about the “activity in TNBS-induced colitis (histopathology analysis)” value (BDF1 mice) of the same molecule?
A: displayed substantial activity
